Reference: PMC10272112 (Nature Communications, 2023)

Experiments:
[1] = target: T1, HDAC8 (Homo sapiens, UniProt Q9BY41); experiment: Chemoproteomic competition pulldown assay; assay type: binding; set-up: endogenous in cells; host or cells: SW620 lysate; settings: iQ; for Kd: SW620, read-out: pKdapp (converted); for relative binding vs DMSO: SW620 lysate
T1 sequence (Q9BY41 1-377): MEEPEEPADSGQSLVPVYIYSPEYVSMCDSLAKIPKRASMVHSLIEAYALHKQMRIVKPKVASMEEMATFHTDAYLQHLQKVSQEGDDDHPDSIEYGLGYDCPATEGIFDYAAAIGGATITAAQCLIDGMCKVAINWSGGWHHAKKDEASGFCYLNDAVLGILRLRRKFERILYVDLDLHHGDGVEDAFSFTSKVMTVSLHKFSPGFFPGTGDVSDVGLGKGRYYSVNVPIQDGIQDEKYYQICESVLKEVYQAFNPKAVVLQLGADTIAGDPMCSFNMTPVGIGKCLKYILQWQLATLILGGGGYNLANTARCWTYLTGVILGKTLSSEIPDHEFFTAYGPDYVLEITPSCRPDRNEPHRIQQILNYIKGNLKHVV
Procedure: (§1) To identify proteins directly bound by lipoic acid, we employed a chemoproteomic competition assay. Briefly, (R/S)-LA was immobilized on sepharose beads via an amidation reaction to form an affinity matrix (abbreviated as iL; Fig. 1a). This affinity matrix can be incubated with cell lysate to pull down potential LA or LM target proteins and identify these targets via bottom-up proteomics. In a competition assay, free LA or LM were incubated with lysate at different concentrations before pulling down and quantifying target proteins. […] (Fig. 1b, see “Methods” for details). […] The lysate buffer used in this assay contains 1 mM DTT to mimic the intracellular reductive milieu and to reduce lipoic acid and LM. […] Additional competition assays performed in lung adenocarcinoma cell A549 lysate also identified HDAC1, HDAC2, and HDAC6 as targets (Supplementary Fig. 1b). Amongst the three cell lines tested, HDACs were the only confidently identified targets across the 1500–3000 proteins quantified in these assays. […] We validated the results by analogous pulldown competition assays using two other affinity matrices prepared via the immobilization of either the HDAC inhibitor Quisinostat (iQ) and an analog of the class IIa HDAC inhibitor Bürli’s 31[14] (iC)[12]. We have previously shown that these affinity matrices specifically bind to the active sites of HDACs and have used them for HDACi selectivity profiling. Indeed, binding of (R/S)-LA and (R/S)-LM to HDAC1, HDAC2, HDAC3, HDAC6, and, to a lesser extent, HDAC8 was confirmed in these assays (Supplementary Fig. 1c, d). No binding to class IIa HDACs or the recently discovered common HDAC inhibitor off-target MBLAC2 was observed (Supplementary Fig. 1e)[12]. […] This observation might reflect electrostatic repulsion between the HDAC10 active site gate-keeper glutamic acid residues[15],[16] and the terminal carboxylic acid of LA.
(§2) To assess the degree of protein depletion from lysates by the affinity matrix, a second pulldown (PDPD) with fresh beads was performed using the unbound protein fraction from the vehicle control flow through. The beads were washed (1 × 1 mL of lysis buffer without inhibitors and only 0.4% Igepal, 2 × 2 mL of lysis buffer without inhibitors and only 0.2% Igepal), and captured proteins were denatured with 8 M urea buffer, alkylated with 55 mM chloroacetamide and digested with Trypsin according to standard procedures. The resulting peptides were desalted on a C18 filter plate (Sep-Pak® tC18 µElution Plate, Waters), vacuum dried, and stored at −20 °C until LC–MSMS measurement.
(§3) For the competition assays, relative binding was calculated based on the protein intensity ratio to the DMSO control for every single inhibitor concentration. EC50 values were derived from a four-parameter log-logistic regression with variable slope (constrain: bottom > 0). The obtained EC50 values were multiplied with a protein-dependent correction factor (cf), resulting in the apparent Kd value (Kd^app). The correction factor is determined by calculating the ratio of the protein intensity of two consecutive pulldowns of the vehicle control sample[13]. Targets of the inhibitors were annotated manually according to published procedures[12],[46],[47]. […] Additionally, the number of unique peptides and MSMS counts per condition were taken into account. Positive target binding across several independent experiments performed with different cell lysates further substantiated our confidence for a true positive drug-target binding event.

[2] = system: HDAC1,2,3,6,8; experiment: HDAC-Glo assay (panel); assay type: biochemical, human; settings: for HDAC inhibition by the oxidized form: absence of TCEP; for EC50: with TCEP, range over HDAC1,2,3,6,8, read-out: EC50 of HDAC inhibition, reduced form
Procedure: To validate the inhibition of HDACs by LA and LM and elaborate on the structure-activity relationship (SAR) of enantiomers as well as oxidized versus reduced forms of the molecules, we performed enzyme activity assays for recombinant HDAC1,2,3,6,8 as well as FRET-based binding assay for recombinant HDAC10.
The experiments were performed according to ref. [48]. […] Drug dosing was performed with a D300e Digital Dispenser (Tecan). HDACs (7 ng/mL for HDAC1, 25 ng/mL for HDAC2, 200 ng/mL for HDAC3/Ncor2 complex, 100 ng/mL for HDAC6, 200 ng/mL for HDAC8) and inhibitors were incubated together at room temperature (RT) for 30 min. After the addition of the HDAC-Glo™ I/II reagent, plates were shaken (800 rpm orbital shaker, 30 s), centrifuged (300 g, 1 min), and incubated at RT for 30 min. Luminescence was detected with a CLARIOstar (BMG Labtech) plate reader.

[3] = system: TBL1XR1 (Homo sapiens); experiment: Chemoproteomic competition pulldown assay (co-competed NCoR partner); assay type: binding; settings: iQ, SW620 lysate
Procedure: as §1, §2, §3

TBL1XR1 (Homo sapiens), sequence (O15379 whole entry): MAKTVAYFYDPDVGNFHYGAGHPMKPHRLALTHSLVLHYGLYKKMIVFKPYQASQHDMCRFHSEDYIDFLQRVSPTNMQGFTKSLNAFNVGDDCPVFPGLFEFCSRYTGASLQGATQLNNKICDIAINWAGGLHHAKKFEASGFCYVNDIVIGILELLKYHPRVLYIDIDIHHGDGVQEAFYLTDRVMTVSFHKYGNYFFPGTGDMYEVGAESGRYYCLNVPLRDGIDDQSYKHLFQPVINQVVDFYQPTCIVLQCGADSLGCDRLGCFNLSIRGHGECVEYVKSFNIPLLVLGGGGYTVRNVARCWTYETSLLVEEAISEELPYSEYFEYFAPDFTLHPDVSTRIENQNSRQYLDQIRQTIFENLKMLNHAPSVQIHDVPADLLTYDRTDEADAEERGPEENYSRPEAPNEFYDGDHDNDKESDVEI
TBL1XR1 (Homo sapiens), sequence (Q9BZK7 2-514, further chain): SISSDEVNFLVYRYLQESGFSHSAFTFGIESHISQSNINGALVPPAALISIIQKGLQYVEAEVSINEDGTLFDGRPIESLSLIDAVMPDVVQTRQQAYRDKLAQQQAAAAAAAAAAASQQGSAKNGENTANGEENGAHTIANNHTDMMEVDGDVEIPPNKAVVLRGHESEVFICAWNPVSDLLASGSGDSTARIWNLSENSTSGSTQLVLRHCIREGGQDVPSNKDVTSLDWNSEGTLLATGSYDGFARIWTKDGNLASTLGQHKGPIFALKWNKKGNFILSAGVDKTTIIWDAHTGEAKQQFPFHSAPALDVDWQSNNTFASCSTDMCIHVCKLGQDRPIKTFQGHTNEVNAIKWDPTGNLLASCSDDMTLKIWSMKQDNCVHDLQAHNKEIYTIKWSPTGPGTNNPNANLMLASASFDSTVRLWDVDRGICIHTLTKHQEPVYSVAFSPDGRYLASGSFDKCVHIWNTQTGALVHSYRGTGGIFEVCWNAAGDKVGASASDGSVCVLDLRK

Compound	Kd [1] [µM]	relative binding vs DMSO ([1]; log10 M -3.52288)	relative binding vs DMSO ([1]; log10 M -4)	relative binding vs DMSO ([1]; log10 M -4.52288)	relative binding vs DMSO ([1]; log10 M -5)	relative binding vs DMSO ([1]; log10 M -5.52288)	relative binding vs DMSO ([1]; log10 M -6)	relative binding vs DMSO ([1]; log10 M -6.52288)	relative binding vs DMSO ([1]; log10 M -7)	HDAC inhibition by the oxidized form [2]	EC50 [2] [µM]	relative binding vs DMSO ([3]; log10 M -3.52288)	relative binding vs DMSO ([3]; log10 M -4)	relative binding vs DMSO ([3]; log10 M -4.52288)	relative binding vs DMSO ([3]; log10 M -5)	relative binding vs DMSO ([3]; log10 M -5.52288)	relative binding vs DMSO ([3]; log10 M -6)	relative binding vs DMSO ([3]; log10 M -6.52288)	relative binding vs DMSO ([3]; log10 M -7)
O=C(O)CCCCC1CCSS1 (racemic) [(R/S)-LA, (R/S)-lipoic acid]	39.8	0.618	0.6642	1.003	1.048	1.024	1.06	0.9713	1.01	diminished activity	1 to 44	0.2899	0.4212	0.5577	0.7209	0.9534	0.8832	1.088	1.002
NC(=O)CCCCC1CCSS1 (racemic) [(R/S)-LM, (R/S)-lipoamide]	15.8	0.4707	0.4645	0.802	1.001	1.106	1.189	0.8797	0.9776	No activity at all	1 to 44	0.1308	0.176	0.3741	0.8567	0.9248	0.9851	0.8544	0.9921
